Reference: US11987557B2, “Phenalene-1-one-containing photosensitizer composition, phenalene-1-one compound and the use thereof” ([…], priority 2017, dated 2024)
“And” between values parts separate entries of the source, which are not always exact repeats. Equal entries are not always repeated.

How the values were obtained:
[1] = test system: S. aureus; experiment: Phototoxic effect of coated surface in office lighting (Example 4); format: cell-based, Staphylococcus aureus; conditions: 2-C paint from Example 2.1, storage 24 h, illumination period 12 h
Method: In a subsequent test, the 2-C paint system was irradiated with room lighting. In this regard, the photoactive surfaces produced in Example 2.1 with the photosensitizers SAPN-19c and SAPN-19 were additionally stored exposed in areas with normal office lighting (standard fluorescent lights, Osram Cool White, 840) and the phototoxic action on S. aureus with the same pathogen counts as in Example 3 was analysed after specific periods. In this regard, the photoactive layers were distanced from the light source by approximately 40 cm. It was shown that for the photosensitizer SAPN-19c, after storage for 24 h under standard office lighting conditions with an illumination period of 12 h, that ail pathogens on the surface had been completely eradicated (approximately 5.5 log10 units, corresponding to >99.999% reduction).

[2] = test system: Staphylococcus aureus ATCC 25923; experiment: Photodynamic inactivation of S. aureus on coated sample supports, LED 405 nm (Example 3); format: cell-based
Method: The photosensitizer was dissolved in the respective paint system and applied to various square sample supports (width: 4 cm, length: 4 cm, thickness: 3 mm) formed from PVC or PMMA and then dried. After drying the coating, a specific quantity of bacteria from the species Staphylococcus aureus ATCC 25923 was applied to the surface.
In this regard, firstly, an overnight (ON) culture of S. aureus in 5 mL of Mueller Hinton broth (Carl Roth GmbH+Co. KG, Karlsruhe, DE) was inoculated with a single colony from an agar plate and incubated at 37° C. and 180 rpm on a shaker for 18-20 hours.
On the day of the test, in each case 1 mL of ON culture was centrifuged (Hettich Universal 320 R centrifuge (Andreas Hettich GmbH & Co. KG, Tuttlingen, DE); swing-out rotor 1494; 10 Min, 3000 rpm, RT). The supernatant was discarded and the pellet was re-suspended in 1 mL of Milli-Q water, which is commercially available from Merck (KGaA, Darmstadt, DE) (designation “Milli-Q Integral Ultra-pure Water (Type 1)”).
After determining the optical density at 600 nm (“Specord 50 plus”, spectrometer, Analytik Jena), the re-suspended bacteria were diluted with Milli-Q-water to a cell count of 10^5 bacteria/mL. From the dilution, in each case 100 μL was dripped onto the sample support using a pipette (droplet size approximately 1 cm^2).
The sample support was then dried in air under a clean bench in the dark for approximately 2 hours, until water could no longer be seen on the surface.
The respective sample supports were irradiated with monochrome light at a wavelength of 405 nm with the aid of a LED module (test area 5×5 cm homogeneously illuminated; high power LEDs) or with room lighting (Osram Lumilux Cool White, colour temperature 4000 K) at the intensities and for the irradiation periods given below. Directly after irradiation, the bacteria were wiped from the surface of the respective sample support with a sterile cloth and re-suspended in 1 mL of Mueller-Hinton broth.
Next, the sample was serially diluted (1:10 dilution stages: 180+20 μL; to dilution stage 10^5).
For each dilution stage (100 to 10^−5), 3× respectively 20 μL of broth was dripped onto a Mueller-Hinton agar plate (Carl Roth GmbH+Co. KG) using a pipette, and spread. The agar plates were then incubated at 37° C. ON.
On the following day, the colonies from all of the dilution stages which could be counted of an experiment were counted and the CFU/mL was calculated.
Next, from the value for the CFU/mL, the log10 eradication rate was calculated. The reference point in each experiment was the reference control (=100% count of bacteria employed).
A test was composed of the following: • coated sample support: without photosensitizer, not irradiated (“reference control”) • coated sample support: with photosensitizer, not irradiated (“dark control”) • coated sample support: without photosensitizer and irradiated (“light control”) • coated sample support: with photosensitizer and irradiated (“sample”)
• Coated material: PMMA, 3 mm thickness, 4×4 cm • Drying time approximately 1 hour • Drying temperature 15-30° C. • Application with a spray gun • Concentration of photosensitizer used: […] (61.55 mg/L) Irradiation Conditions:
• Coated material: PVC, 3 mm thickness, 4×4 cm • Drying time approximately 2 hours • Drying temperature 15-30° C. • Relative humidity for the drying time 30-70% • Application with a spray gun • Concentration of photosensitizer used: […] (61.55 mg/L) Irradiation Conditions: […]

[3] = test system: S. aureus; experiment: Long-term test of photoactive stability after pre-irradiation (Example 5); format: cell-based, Staphylococcus aureus
Method: In order to test the stability of the lacks produced, a long term test was carried out.
The test surfaces were pre-irradiated for different time periods (5, 25, 50, 75 h) at an output of 5 mW cm^−2 in order to establish whether the respective photosensitizer in PUR was affected in a manner such that the phototoxic activity of the surface was reduced:
Following the pre-irradiation, the surfaces as described above were contaminated with S. aureus then irradiated for 2 h (corresponds to 5 mW cm^−2) and the phototoxic efficiency was measured.

Row | Compound | eradication of pathogens on the surface ([1]; standard office lighting (Osram Cool White, 840), approx. 40 cm) | reduction of pathogens on the surface ([1]; standard office lighting) | mean eradication of S. aureus ([2]; 1-C polyurethane paint, water-based, on PVC, LED 405 nm, 10 mW/cm^2, 10 minutes (6 J/cm^2), three independent tests) | eradication of S. aureus ([2]; 2-C polyurethane paint on PMMA, LED 405 nm, 0.7 mW/cm^2, after 20 minutes, two independent tests) | log10 reduction of S. aureus ([2]; 2-C polyurethane paint on PMMA, photosensitizer 200 μm (61.55 mg/L), LED 405 nm, 10 mW/cm^2, 2 minutes (1.2 J/cm^2), mean of 3 independent experiments) | extermination of S. aureus ([2]; 2-C polyurethane paint on PMMA, photosensitizer 200 μm (61.55 mg/L), LED 405 nm, 20 mW/cm^2, 2 minutes (2.4 J/cm^2)) | reduction of the bacteria involved ([2]; coating at 6 J/cm^2, equivalent of 3 log10 units) | phototoxic efficiency after pre-irradiation ([3]; PUR surface pre-irradiated 5, 25, 50, 75 h at 5 mW cm^−2, then contaminated with S. aureus and irradiated 2 h) | state of the test surfaces after one month ([3]; porphyrin-doped surfaces, after one month)
1 | CC(C)(O)c1cc[n+](CC2=Cc3cccc4cccc(c34)C2=O)cc1 [SAPN-19c] | approximately 5.5 log10 units | > 99.999% | 3.0 log10 units and 3 log10 units | 1.9 log10 units | 1.8 log10 | 2.7 log10 units | 99.9% | – | –
2 | OCCOCCOc1ccc(-c2c3nc(c(-c4ccccc4)c4ccc([nH]4)c(-c4ccccc4)c4nc(c(-c5ccccc5)c5ccc2[nH]5)C=C4)C=C3)cc1 [TPP sensitizer WBII/2] | – | – | – | – | – | – | – | noticeable reduction in the phototoxic efficiency | discoloured significantly and they lost phototoxic activity
